Results taken from patent publication US9856279B2 (AGIOS PHARMACEUTICALS, INC, priority 2011, dated 2018).
Where two headings read alike, the source gives them in different places.

How the values were obtained:
[1] = biological target: IDH1 R132H (Homo sapiens, UniProt O75874, R132H); assay: Assay for IDH1 R132H inhibitors (NADPH/aKG, resazurin detection); assay type: biochemical; conditions: enzyme assay of Example 12; read-out: IDH1R132H IC50
How it was run: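 Read-out is resorufin fluorescence (Ex544/Em590) 5 min after adding a 30 μM resazurin detection mix. Before that, mutant enzyme (0.2 μg/ml in its mix) ran 50 min at room temperature with compound, 8 uM NADPH and 2 mM aKG (mix levels) in Tris pH 7.5 with NaCl, MgCl2, BSA.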

[2] = system: U87MG cells; assay: Cellular assay for IDH1m inhibitors: inhibition of 2-HG production (LC-MS, 48 hours) in U87MG cells; assay type: cell-based; conditions: Homo sapiens, U-87 MG
How it was run: (§1)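 HT1080 or U87MG cells were seeded at 5000/well in DMEM with 10% FBS, incubated overnight, then treated with compounds (0.2% DMSO final) for 48 h. Medium 2-HG was quantified by LC-MS, and IC50 was taken as the concentration reducing 2-HG by 50% versus DMSO control.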

[3] = system: HT1080 cells; assay: Cellular assay for IDH1m inhibitors: inhibition of 2-HG production (LC-MS, 48 hours) in HT1080 cells; assay type: cell-based; conditions: Homo sapiens
How it was run: as §1

[4] = inhibition of 2-HG production, U87R132H cells, read-out: U87R132H IC50
[5] = HT-1080, inhibition of 2-HG production, HT1080 cells, read-out: HT1080 IC50

Sequence of IDH1 R132H (O75874 whole entry R132H): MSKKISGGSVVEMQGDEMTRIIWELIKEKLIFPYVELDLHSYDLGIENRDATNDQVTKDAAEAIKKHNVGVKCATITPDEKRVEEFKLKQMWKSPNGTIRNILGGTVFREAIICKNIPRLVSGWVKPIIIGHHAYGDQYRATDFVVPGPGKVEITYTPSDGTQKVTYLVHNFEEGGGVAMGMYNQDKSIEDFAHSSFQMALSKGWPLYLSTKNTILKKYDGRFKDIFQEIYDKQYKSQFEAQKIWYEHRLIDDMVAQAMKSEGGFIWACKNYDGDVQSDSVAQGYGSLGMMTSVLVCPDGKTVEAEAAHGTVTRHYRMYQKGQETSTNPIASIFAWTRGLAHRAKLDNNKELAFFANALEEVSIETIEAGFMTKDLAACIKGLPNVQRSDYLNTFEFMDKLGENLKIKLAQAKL

SMILES	IC50 [1] [µM]	IC50 [2, 4] [µM]	IC50 [3, 5] [µM]	IC50 ([2]; read-out: U87R132H IC50 (μM)) [µM]	IC50 ([3]; HT-1080, read-out: HT1080 IC50 (μM)) [µM]
N#Cc1cc(Oc2ccnc(Cl)c2)c(C2CC2)nc1N1CCN(C(=O)CCO)[C@H](C2CC2)C1 [Compound 694, (R)-5-(2-chloropyridin-4-yloxy)-6-cyclopropyl-2-(3-cyclopropyl-4-(3-hydroxypropanoyl)piperazin-1-yl) nicotinonitrile]	< 0.5	< 0.5	0.5 to 1		
COCCC(=O)N1CCN(c2nc(C3CC3)c(OCc3cccc(C(=O)OC)c3)cc2C#N)C[C@H]1C [Compound 292, (R)-methyl 3-((5-cyano-2-cyclopropyl-6-(4-(3-methoxypropanoyl)-3-methylpiperazin-1-yl)pyridin-3-yloxy)methyl)benzoate]	< 0.5	1 to 10	0.5 to 1		
C/C=C/C(=O)Nc1cccc(COc2cc(C#N)c(N3CCN(C(=O)CCOC)[C@H](C)C3)nc2C2CC2)c1 [Compound 400, (R,E)-N-(3-((5-cyano-2-cyclopropyl-6-(4-(3-methoxypropanoyl)-3-methylpiperazin-1-yl)pyridin-3-yloxy)methyl)phenyl)but-2-enamide]	0.5 to 1	1 to 10	1 to 10		
C=Cc1cc(-c2cc(C#N)c(N3CCN(C(=O)CCOP(=O)(O)O)[C@H](C4CC4)C3)nc2C2CC2)ccn1 [Compound 810, Sodium (R)-3-(4-(5-cyano-2-cyclopropyl-2′-vinyl-[3,4′-bipyridin]-6-yl)-2-cyclopropylpiperazin-1-yl)-3-oxopropyl phosphate]	0.5 to 1			< 0.5	< 0.5
C=Cc1cc(-c2cc(C#N)c(N3CCN(C(=O)C4CC4)[C@H](C)C3)nc2C2CC2)ccn1 [Compound 443, (R)-6-(4-(cyclopropanecarbonyl)-3-methylpiperazin-1-yl)-2-cyclopropyl-2′-vinyl-3,4′-bipyridine-5-carbonitrile]	< 0.5	< 0.5	< 0.5		
COCCC(=O)N1CCN(c2nc(C3CC3)c(-c3cccc4c[n+]([O-])ccc34)cc2C#N)C[C@H]1C [Compound 420, (R)-5-(5-cyano-2-cyclopropyl-6-(4-(3-methoxypropanoyl)-3-methylpiperazin-1-yl)pyridin-3-yl)isoquinoline 2-oxide]	< 0.5	1 to 10	1 to 10		

The next lines start with results.

IC50 [1] [µM]	IC50 [2, 4] [µM]	IC50 [3, 5] [µM]	SMILES	IC50 ([2]; read-out: U87R132H IC50 (μM)) [µM]	IC50 ([3]; HT-1080, read-out: HT1080 IC50 (μM)) [µM]
< 0.5	< 0.5	< 0.5	C=CC(=O)N1CCC=C(c2c(C3CC3)nc(N3CCN(C(=O)CCOC)[C@H](C4CC4)C3)c(C#N)c2C)C1 [Compound 745, (R)-5-(1-acryloyl-1,2,5,6-tetrahydropyridin-3-yl)-6-cyclopropyl-2-(3-cyclopropyl-4-(3-methoxypropanoyl)piperazin-1-yl)-4-methylnicotinonitrile]		
< 0.5	< 0.5	< 0.5	C#Cc1ccnc(N(c2cc(C#C)ccn2)c2cc(C#N)c(N3CCN(C(=O)CCOC)[C@H](C)C3)nc2C2CC2)c1 [Compound 714, (R)-5-(bis(4-ethynylpyridin-2-yl)amino)-6-cyclopropyl-2-(4-(3-methoxypropanoyl)-3-methylpiperazin-1-yl)nicotinonitrile]		
< 0.5	< 0.5	< 0.5	C=CC(=O)N1CCC=C(c2cc(C#N)c(N3CCN(C(=O)CCO)[C@H](C4CC4)C3)nc2C2CC2)C1 [Compound 727, (R)-5-(1-acryloyl-1,2,5,6-tetrahydropyridin-3-yl)-6-cyclopropyl-2-(3-cyclopropyl-4-(3-hydroxypropanoyl)piperazin-1-yl)nicotinonitrile]		
< 0.5	< 0.5	< 0.5	C=Cc1cc(-c2c(C3CC3)nc(N3CCN(C(=O)CC4CC4)[C@H](C4CC4)C3)c(C#N)c2C)ccn1 [Compound 787, (R)-2-cyclopropyl-6-(3-cyclopropyl-4-(2-cyclopropylacetyl)piperazin-1-yl)-4-methyl-2′-vinyl-3,4′-bipyridine-5-carbonitrile]		
